Test results from patent US10519162B2, “6,7-dihydropyrazolo[1,5-α]pyrazin-4(5H)-one compounds and their use as negative allosteric modulators of mGluR2 receptors” (Janssen Pharmaceutica NV, priority 2014, dated 2019).

Tests used:
[1] = system: rats; experiment: Reversal of the effect of the mGluR2 PAM JNJ-42153605-induced inhibition of scopolamine-induced hyperlocomotion (SCOP JNJ-42153605); assay type: in vivo, rat; settings: Rattus norvegicus; PO (oral route); rats; reversal criterion total distance >1500 cm
Experimental: 2) Reversal of the Effect of the mGluR2 PAM JNJ-42153605-Induced Inhibition of Scopolamine-Induced Hyperlocomotion Apparatus
Motor activity was measured in microprocessor-based motor activity arenas (closed gray PVC cylinders with a height of 39 cm and a diameter of 31 cm). Each arena was placed on an infrared LED (8×8 LEDs) lit box (white PVC squared box; 40×40 cm^2; height 12.5 cm. An infrared-sensitive tube camera and a white light source were mounted to the ceiling above the observation chamber to track the animal. The total distance traveled (cm) was recorded and analyzed using the Noldus Ethovision XT Video Tracking System (Version 7.0.418; Noldus, Wageningen, The Netherlands). The intensity of the light within the activity cages (measured in the centre at the level of the floor) ranged between 4 and 8 LUX.
The rats were pretreated with test compound or vehicle at 60 min before the start of the activity recordings and placed into individual cages. The rats were challenged with JNJ-42153605 (3-(cyclopropylmethyl)-7-(4-phenylpiperidin-1-yl)-8-(trifluoromethyl)[1,2,4]triazolo[4,3-a]pyridine; WO2010/130424; Cid et al. J. Med. Chem. 2012, 55, 8770-8789) (20 mg/kg, i.v.) 30 min before the start of the activity recording combined with scopolamine (0.16 mg/kg, i.v.) just before the start of the activity measurements. Immediately after the injection of scopolamine, the rats were placed into the activity monitors and total distance travelled over the first 30 min was measured.
Solvent-Pretreated Control Rats.
Animals receiving the combination of JNJ-42153605 and scopolamine (n=433) almost always travelled a distance of less than 1500 cm (<1500 cm) (only 2.5% of the control rats travelled a distance of more than 1500 cm (>1500 cm)). On the other hand, animals challenged with scopolamine alone (n=215) always travelled a total distance of more than 1500 cm (>1500 cm) and almost always (in 95.8% of the rats) a distance of more than 4400 cm (>4400 cm). […] For reversal of the inhibitory effect of JNJ-42153605 on the scopolamine-induced hyperlocomotion, the following all-or-none criteria were adopted: (1) reversal: total distance >1500 cm.

[2] = target: T1, human mGlu2 receptor (Homo sapiens, UniProt Q14416); experiment: [35S]GTPγS binding assay (mGluR2 negative allosteric modulation, glutamate ~EC80 60 μM); assay type: biochemical; settings: for Emax: maximal % inhibition relative to the control glutamate response (EC80 glutamate), read-out: GTPγS-hmGluR2 anGT Emax; for IC50: membranes from CHO cells transfected with human mGlu2 receptor, glutamate ~EC80 (60 μM), pIC50 = −log IC50 (M), read-out: GTPγS-hmGluR2 anGT pIC50 (converted)
T1 construct: expressed in transfected cells; host or cells: CHO cells
T1 sequence (Q14416 19-872): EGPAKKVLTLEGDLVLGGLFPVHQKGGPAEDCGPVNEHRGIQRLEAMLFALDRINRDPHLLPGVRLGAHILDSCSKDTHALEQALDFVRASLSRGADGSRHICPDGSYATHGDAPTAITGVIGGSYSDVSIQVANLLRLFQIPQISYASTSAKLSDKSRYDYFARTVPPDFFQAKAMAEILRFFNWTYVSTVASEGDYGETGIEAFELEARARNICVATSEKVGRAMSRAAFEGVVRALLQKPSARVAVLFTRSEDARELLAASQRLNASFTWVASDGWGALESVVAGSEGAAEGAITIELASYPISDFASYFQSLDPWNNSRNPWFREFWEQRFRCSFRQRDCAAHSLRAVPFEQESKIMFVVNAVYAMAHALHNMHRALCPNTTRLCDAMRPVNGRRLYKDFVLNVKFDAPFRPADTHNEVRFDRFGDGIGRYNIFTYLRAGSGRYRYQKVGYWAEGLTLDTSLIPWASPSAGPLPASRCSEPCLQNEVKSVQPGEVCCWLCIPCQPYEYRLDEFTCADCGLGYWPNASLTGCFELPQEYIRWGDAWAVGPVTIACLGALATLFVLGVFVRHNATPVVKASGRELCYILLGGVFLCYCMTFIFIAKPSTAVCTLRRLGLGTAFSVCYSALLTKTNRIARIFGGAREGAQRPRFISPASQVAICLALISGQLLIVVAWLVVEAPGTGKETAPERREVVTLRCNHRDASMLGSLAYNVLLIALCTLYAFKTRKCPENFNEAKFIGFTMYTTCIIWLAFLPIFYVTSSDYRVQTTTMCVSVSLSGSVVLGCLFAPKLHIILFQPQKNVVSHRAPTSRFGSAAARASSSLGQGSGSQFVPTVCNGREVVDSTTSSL
Experimental: 1) [^35S]GTPγS Binding Assay
[^35S]GTPγS Binding Assay
Total reaction volume was 200 μl. […] Membrane-bound radioactivity was counted in a Topcount.

[3] = system: Wiga rats; experiment: Induction of mydriasis (MYD); assay type: in vivo; settings: Rattus norvegicus, PO (oral route), pupil diameter >25 units, 1-3 h post-administration
Experimental: 3) Induction of Mydriasis
The pupil diameter of Wiga rats was measured with a microscopic micrometer (1 unit=1/24 mm). Criteria for drug-induced effects: pupil diameter >25 units for mydriasis (in controls: 1.9%) 1, 2 or 3 h post-administration of the test compound (wherein the maximum pupil diameter over the full 3 h period is reported).

Row | SMILES | Emax [2] | IC50 [2] | melting point | ED50 [1] | ED50 [3]
1 | C[C@H]1CN(c2ccc(C(F)(F)F)c(Cl)c2)C(=O)c2c(NC(=O)c3cccnc3)cnn21 [Co. No. 100] | 106% | 2.19e-09 M | 157.47 °C | 0.8 mg/kg | > 2.5 mg/kg
2 | C[C@H]1CN(c2ccc(Cl)c(Cl)c2)C(=O)c2c(NC(=O)c3cnccn3)cnn21 [Co. No. 104] | 107% | 1.82e-09 M | 201.39 °C | 0.32 mg/kg | 6.6 mg/kg
3 | Cc1cc(C(=O)Nc2cnn3c2C(=O)N(c2ccc(C(F)(F)F)c(C)c2)C[C@@H]3C)cc(C)n1 [Co. No. 113] | 107% | 2.04e-09 M | 164.61 °C | 0.5 mg/kg | > 40 mg/kg
4 | COc1cc(N2C[C@H](C)n3ncc(NC(=O)c4cccnc4)c3C2=O)ccc1C(F)(F)F [Co. No. 147] | 106% | 1.07e-08 M | 186.11 °C | > 0.63 mg/kg | 
5 | COc1cncc(C(=O)Nc2cnn3c2C(=O)N(c2ccc(Cl)c(Cl)c2)C[C@@H]3C)c1 [Co. No. 149] | 107% | 1.66e-09 M | 184.46 °C | > 0.63 mg/kg | 
6 | COc1cncc(C(=O)Nc2cnn3c2C(=O)N(c2ccc(C(F)(F)F)c(Cl)c2)C[C@@H]3C)c1 [Co. No. 150] | 107% | 1.66e-09 M | 133.07 °C | > 0.63 mg/kg | 
7 | COc1cncc(C(=O)Nc2cnn3c2C(=O)N(c2ccc(C(F)(F)F)c(C)c2)C[C@@H]3C)c1 [Co. No. 151] | 106% | 3.16e-09 M | 135.98 °C | > 0.63 mg/kg | 
8 | COc1cncc(C(=O)Nc2cnn3c2C(=O)N(c2ccc(C(F)(F)F)c(OC)c2)C[C@@H]3C)c1 [Co. No. 152] | 106% | 9.77e-09 M | 115.19 °C | > 0.63 mg/kg | 
9 | COc1cncc(C(=O)Nc2cnn3c2C(=O)N(c2ccc(C(F)(F)F)c(F)c2)C[C@@H]3C)c1 [Co. No. 153] | 106% | 1.35e-08 M | 143.17 °C | > 0.63 mg/kg | 
10 | Cc1cc(C(=O)Nc2cnn3c2C(=O)N(c2ccc(C(F)(F)F)c(Cl)c2)C[C@@H]3C)cc(C)n1 [Co. No. 172] | 110% | 1.32e-09 M |  | 0.32 mg/kg | > 40 mg/kg
11 | C[C@H]1CN(c2ccc(S(F)(F)(F)(F)F)cc2)C(=O)c2c(NC(=O)c3cccnc3)cnn21 [Co. No. 175] | 108% | 3.16e-09 M | 205.19 °C | 0.318 mg/kg | > 10 mg/kg
12 | C[C@H]1CN(c2ccc(C(F)(F)F)c(Cl)c2)C(=O)c2c(NC(=O)c3cnccn3)cnn21 [Co. No. 176] | 108% | 1.7e-09 M | 230.53 °C | 0.32 mg/kg | > 10 mg/kg
13 | C[C@H]1CN(c2ccc(C(F)(F)F)cc2)C(=O)c2c(NC(=O)c3cccc(S(N)(=O)=O)c3)cnn21 [Co. No. 177] | 109% | 1.66e-09 M | 280.43 °C | > 0.63 mg/kg | 
14 | C[C@H]1CN(c2ccc(OC(F)(F)F)cc2)C(=O)c2c(NC(=O)c3cccnc3)cnn21 [Co. No. 178] | 105% | 1.48e-08 M | 125.45 °C | 0.318 mg/kg | > 10 mg/kg
15 | C[C@H]1CN(c2ccc(SC(F)(F)F)cc2)C(=O)c2c(NC(=O)c3cccnc3)cnn21 [Co. No. 179] | 106% | 5.89e-09 M | 110.73 °C | > 0.63 mg/kg | 
16 | Cc1cc(C(=O)Nc2cnn3c2C(=O)N(c2ccc(C(F)(F)F)c(Cl)c2)C[C@@H]3C)nc(N)n1 [Co. No. 181] | 101% | 5.75e-09 M | 258.12 °C | > 0.63 mg/kg | 
17 | C[C@H]1CN(c2ccc(C(F)(F)F)c(Cl)c2)C(=O)c2c(NC(=O)c3cccnc3N)cnn21 [Co. No. 182] | 110% | 7.08e-10 M | 142.58 °C | 0.0985 mg/kg | > 10 mg/kg

Continued, in another order:

Row | Emax [2] | IC50 [2] | melting point | SMILES | ED50 [1] | ED50 [3]
18 | 109% | 1.51e-09 M | 277.76 °C | Cc1cc(C(=O)Nc2cnn3c2C(=O)N(c2ccc(C(F)(F)F)cc2)C[C@@H]3C)cnc1N (racemic) [Co. No. 187] | 0.0794 mg/kg | > 10 mg/kg
19 | 114% | 2.24e-09 M | 185.23 °C | COc1cncc(C(=O)Nc2cnn3c2C(=O)N(c2ccc(C(F)(F)F)cc2)C[C@@H]3C)n1 [Co. No. 183] | 0.318 mg/kg | 
20 | 110% | 1.23e-09 M | 175.63 °C | Cc1cc(N2C[C@H](C)n3ncc(NC(=O)c4cccnc4N)c3C2=O)ccc1C(F)(F)F [Co. No. 184] | 0.2 mg/kg | > 10 mg/kg
21 | 113% | 1.07e-09 M | 193.17 °C | C[C@H]1CN(c2ccc(Cl)c(Cl)c2)C(=O)c2c(NC(=O)c3cccnc3N)cnn21 [Co. No. 185] | 0.08 mg/kg | > 10 mg/kg
22 | 109% | 1.82e-09 M | 214.96 °C | C[C@H]1CN(c2ccc(C(F)(F)F)cc2)C(=O)c2c(NC(=O)c3cccnc3N)cnn21 [Co. No. 189] | 0.2 mg/kg | > 10 mg/kg
23 | 112% | 1.95e-09 M | 222.34 °C | Cc1cnc(N)c(C(=O)Nc2cnn3c2C(=O)N(c2ccc(C(F)(F)F)cc2)C[C@@H]3C)c1 [Co. No. 191] | 0.318 mg/kg | > 10 mg/kg
24 | 113% | 1.29e-09 M | 161.97 °C | CNc1ncccc1C(=O)Nc1cnn2c1C(=O)N(c1ccc(C(F)(F)F)cc1)C[C@@H]2C [Co. No. 194] | 0.318 mg/kg | 
25 | 109% | 2.63e-09 M | 188.46 °C | C[C@H]1CN(c2ccc(OC(F)(F)F)cc2)C(=O)c2c(NC(=O)c3cccnc3N)cnn21 [Co. No. 196] | 0.32 mg/kg | > 10 mg/kg
26 | 109% | 4.07e-09 M | 209.11 °C | C[C@H]1CN(c2ccc(Cl)cc2)C(=O)c2c(NC(=O)c3cccnc3N)cnn21 [Co. No. 198] | > 0.63 mg/kg | 
27 | 109% | 9.77e-10 M | 220.49 °C | Cc1cnc(N)c(C(=O)Nc2cnn3c2C(=O)N(c2ccc(Cl)c(Cl)c2)C[C@@H]3C)c1 [Co. No. 199] | 0.08 mg/kg | 
28 | 111% | 1.48e-09 M | 197.51 °C | Cc1cnc(N)c(C(=O)Nc2cnn3c2C(=O)N(c2ccc(S(F)(F)(F)(F)F)cc2)C[C@@H]3C)c1 [Co. No. 200] | > 0.63 mg/kg | 
29 | 108% | 1.15e-09 M | 223.96 °C | C[C@H]1CN(c2ccc(S(F)(F)(F)(F)F)cc2)C(=O)c2c(NC(=O)c3cccnc3N)cnn21 [Co. No. 202] | 0.2 mg/kg | 
30 | 105% | 1.12e-08 M | 223.01 °C | Cc1cc(C(=O)Nc2cnn3c2C(=O)N(c2ccc(Cl)cc2)C[C@@H]3C)cc(N)n1 [Co. No. 203] | > 0.63 mg/kg | 
31 | 107% | 2.82e-09 M | 250.78 °C | C[C@H]1CN(c2ccc(C(F)(F)F)cc2)C(=O)c2c(NC(=O)c3ccc(N)cc3)cnn21 [Co. No. 204] | 0.318 mg/kg | 
32 | 110% | 3.02e-09 M | 205.79 °C | C[C@H]1CN(c2ccc(C(F)(F)F)cc2)C(=O)c2c(NC(=O)c3nccnc3N)cnn21 [Co. No. 206, 3-Amino-N-[(7S)-7-methyl-4-oxo-5-[4-(trifluoromethyl)phenyl]-6,7-dihydropyrazolo[1,5-a]pyrazin-3-yl]pyrazine-2-carboxamide] | 0.505 mg/kg | 
33 | 106% | 2.09e-09 M | 176.26 °C | C[C@H]1CN(c2ccc(C(F)(F)F)c(CF)c2)C(=O)c2c(NC(=O)c3cccnc3N)cnn21 [Co. No. 210] | 0.32 mg/kg | 
